For three compounds, IC50 results are on record in US7655662B2, “(Indazol-5-yl)-pyrazines and (1,3-dihydro-indol-2-one)-pyrazines for treating glaucoma and controlling intraocular pressure” (Alcon Research, Ltd., priority 2005, dated 2010).

Counter-ions that a name gives are not always drawn.

The target of the experiment is T1, Human recombinant Rho kinase (ROKα/ROCK-II, (aa 11-552)) (Homo sapiens, UniProt O75116).
T1 construct: Human recombinant Rho kinase (ROKα/ROCK-II, (aa 11-552), human active); purchased Upstate Biotechnology Co., Lake Placid, N.Y. 14-451
T1 sequence (O75116 11-552): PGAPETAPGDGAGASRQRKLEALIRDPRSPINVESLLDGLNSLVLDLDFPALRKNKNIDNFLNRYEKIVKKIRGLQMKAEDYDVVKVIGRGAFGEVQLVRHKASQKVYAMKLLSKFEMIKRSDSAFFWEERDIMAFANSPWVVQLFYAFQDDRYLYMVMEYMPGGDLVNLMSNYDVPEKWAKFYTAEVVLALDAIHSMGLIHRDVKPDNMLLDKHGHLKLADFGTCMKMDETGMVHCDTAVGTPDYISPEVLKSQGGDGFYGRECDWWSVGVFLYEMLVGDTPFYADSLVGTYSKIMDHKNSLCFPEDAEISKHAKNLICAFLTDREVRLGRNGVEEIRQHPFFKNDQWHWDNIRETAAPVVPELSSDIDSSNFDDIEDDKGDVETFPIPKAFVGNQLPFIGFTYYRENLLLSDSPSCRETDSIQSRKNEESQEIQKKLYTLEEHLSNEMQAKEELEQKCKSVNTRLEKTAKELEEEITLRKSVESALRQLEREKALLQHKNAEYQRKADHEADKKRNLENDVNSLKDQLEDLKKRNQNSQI
In words: Rho kinase II (ROCK II) IMAP fluorescence polarization inhibition assay. The format is biochemical. The settings on record: IMAP ROCK II kit; substrate 200 nM, ATP 10 μM; 60 min at 23° C.; read-out: Rho kinase II Binding Data IC50. The method, then:
The ability of certain compounds of Formula (I) to inhibit rho kinase is evaluated by means of in vitro assays. Human recombinant Rho kinase (ROKα/ROCK-II, (aa 11-552), human active, catalog #14-451, Upstate Biotechnology Co., Lake Placid, N.Y.), MgCl2/ATP cocktail, and enzyme substrate (Upstate) is used.
Fluorescence polarization assays are performed using a Biomek 2000 Robotic Workstation (Beckman Instruments, Palo Alto, Calif.) in a 96-well plate format. The assays are performed utilizing the IMAP ROCK II kit (Molecular Devices, Sunnyvale, Calif.) as follows. Substrate and ATP concentrations used are 200 nM and 10 μM, respectively, while the enzyme concentration is 3.96×10^−3 units per well. The substrate, enzyme, and ATP dilutions are made with the reaction buffer provided by the vendor. Test compounds are diluted in 10:10 DMSO-ethanol (vol/vol). For the actual assays, the various components are added into black, clear bottom, 96-well plates (Costar, Corning, N.Y.) in a final volume of 20 μl per well. After the enzyme reaction (60 min at 23° C.), 60 μl of the binding solution (IMAP kit, provided by vendor) is added per well and incubated for an additional 30 minutes in the dark at 23° C. Fluorescence polarization of the reaction mixtures is then measured on the Analyst™ HT instrument (Molecular Devices, Sunnyvale, Calif.).
The data generated are then analyzed using a non-linear, iterative, sigmoidal-fit computer program purchased from IDBS (Emeryville, Calif.) and as previously described (Sharif et al., J Pharmacol. Exp. Ther. 286:1094-1102, 1998; Sharif et al., J Pharmacol. Expt. Ther. 293:321-328, 2000; Sharif et al., J Ocular Pharmacol. Ther. 18:141-162, 2002a; Sharif et al., J Pharmac. Pharmacol. 54:539-547, 2002b) to generate the inhibition constants for the test compounds.
A general note: Fluorescence polarisation rises when a labelled molecule tumbles more slowly, as on binding a larger partner.
Take `Cc1n[nH]c2ccc(-c3cncc(NC[C@@H](N)Cc4ccccc4)n3)cc12` (single isomer, unassigned) [Example 2]: the IC50 – broadly, the concentration at which inhibition is half-maximal – was 0.057 µM.

With `Cc1n[nH]c2ccc(-c3cncc(NC[C@@H](N)Cc4ccccc4)n3)cc12` [Example 1, (S)-N^1-[6-(3-Methyl-1H-indazole-5-yl)-pyrazin-2-yl]-3-phenyl-propane-1,2-diamine dihydrochloride], the IC50 was determined as 0.19 µM.

`Cc1n[nH]c2ccc(-c3cncc(NCC(N)Cc4cc5ccccc5[nH]4)n3)cc12` (stereo not drawn) [Example 3]: the IC50 came out at 0.59 µM.
